“Also recorded” adds a separate entry of the source.
Tests used:
hA2AAR = hA2AAR (Homo sapiens, UniProt P29274); settings: read-out: Affinity (Ki) hA2A; HEK293 cell membranes; ref Melman et al.[19]; cited from earlier work
hA3AR [1] = target: T1, hA3AR (Homo sapiens, UniProt P0DMS8); settings: read-out: Affinity (Ki) hA3; CHO cell membranes; ref Melman et al.[19]; cited from earlier work
T1 sequence (P0DMS8 1-318): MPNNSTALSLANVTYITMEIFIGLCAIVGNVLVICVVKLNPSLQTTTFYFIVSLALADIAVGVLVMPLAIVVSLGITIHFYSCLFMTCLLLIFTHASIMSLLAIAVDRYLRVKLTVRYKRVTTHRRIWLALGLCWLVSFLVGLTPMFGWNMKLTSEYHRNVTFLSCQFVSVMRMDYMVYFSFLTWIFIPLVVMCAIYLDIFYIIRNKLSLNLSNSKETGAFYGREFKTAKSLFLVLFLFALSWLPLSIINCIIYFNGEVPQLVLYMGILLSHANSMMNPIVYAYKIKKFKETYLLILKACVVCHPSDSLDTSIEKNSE

hA3AR [2] = target: T1, hA3AR; settings: at 10 µM, relative to 10 µM NECA (=100%); ref Melman et al.[19]; cited from earlier work
hA1AR = target: T2, hA1AR (Homo sapiens, UniProt P30542); settings: read-out: Affinity (Ki) hA1; CHO cell membranes; ref Melman et al.[19]; cited from earlier work
T2 sequence (P30542 1-326): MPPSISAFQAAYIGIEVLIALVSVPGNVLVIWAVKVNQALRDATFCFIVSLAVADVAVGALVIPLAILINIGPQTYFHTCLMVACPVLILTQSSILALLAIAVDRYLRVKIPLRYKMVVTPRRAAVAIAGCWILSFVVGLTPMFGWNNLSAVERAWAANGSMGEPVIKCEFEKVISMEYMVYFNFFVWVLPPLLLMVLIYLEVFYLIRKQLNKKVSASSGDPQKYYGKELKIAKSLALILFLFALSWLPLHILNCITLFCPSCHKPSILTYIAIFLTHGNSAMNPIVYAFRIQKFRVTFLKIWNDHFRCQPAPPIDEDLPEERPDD

hA3AR [3] = target: T1, hA3AR; assay type: cell-based; settings: in words, from cyclic AMP assay at 10 µM

Chain of hA2AAR (P29274 whole entry): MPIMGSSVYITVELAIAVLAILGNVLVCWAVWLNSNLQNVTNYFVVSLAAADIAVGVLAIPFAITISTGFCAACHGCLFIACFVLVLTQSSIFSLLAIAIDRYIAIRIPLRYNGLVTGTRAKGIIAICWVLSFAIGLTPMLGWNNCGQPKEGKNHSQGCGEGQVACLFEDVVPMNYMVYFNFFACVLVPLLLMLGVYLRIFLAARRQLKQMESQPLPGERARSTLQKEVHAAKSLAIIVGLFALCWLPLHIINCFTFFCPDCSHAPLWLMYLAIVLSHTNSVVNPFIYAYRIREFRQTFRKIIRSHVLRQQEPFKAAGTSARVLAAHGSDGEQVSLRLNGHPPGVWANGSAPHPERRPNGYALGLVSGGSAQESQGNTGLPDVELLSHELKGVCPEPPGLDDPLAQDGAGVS

Row | functional character at the hA3AR (hA3AR [3]) | SMILES | further results
1 |  | CNC(=O)[C@@]12C[C@@H]1[C@@H](n1cnc3c(NCc4cccc(Cl)c4)nc(Cl)nc31)[C@H](O)[C@@H]2O [Compound 1] | Ki (hA2AAR): 2.3 ± 0.1 µM
2 |  | O[C@@H]1[C@H](O)[C@@H]2C[C@@H]2[C@H]1n1cnc2c(NCc3cccc(I)c3)nc(Cl)nc21 [Compound 2a] | Ki (hA3AR [1]): 1.44 nM; %Efficacy hA3 (hA3AR [2]): 1.0±3.2%
3 |  | OC1C(O)C(n2cnc3c(NCc4cccc(Cl)c4)nc(Cl)nc32)C2CC12 (stereo not shown) [Compound 2b] | Ki (hA1AR): 3.07 µM; Ki (hA2AAR): 4.51 µM; %Efficacy hA3 (hA3AR [2]): 2.9±3.7%
4 | antagonists | CNc1nc(C#Cc2ccccc2Cl)nc2c1ncn2[C@H]1[C@H](O)[C@H](O)[C@@H]2C[C@@H]21 [Compound 5] | 
5 | low-efficacy partial agonists | CONc1nc(C#Cc2ccccc2)nc2c1ncn2[C@H]1[C@H](O)[C@H](O)[C@@H]2C[C@@H]21 [Compound 6] | 
6 | antagonists | CCNc1nc(C#Cc2ccccc2)nc2c1ncn2[C@H]1[C@H](O)[C@H](O)[C@@H]2C[C@@H]21 [Compound 8] | 
7 | antagonists | CCNc1nc(C#Cc2ccccc2Cl)nc2c1ncn2[C@H]1[C@H](O)[C@H](O)[C@@H]2C[C@@H]21 [Compound 9] | 
8 | low-efficacy partial agonists | O[C@@H]1[C@H](O)[C@@H]2C[C@@H]2[C@H]1n1cnc2c(NCc3cccc(Cl)c3)nc(C#Cc3ccccc3Cl)nc21 [Compound 12] | 
9 | low-efficacy partial agonists | O[C@@H]1[C@H](O)[C@@H]2C[C@@H]2[C@H]1n1cnc2c(NCCc3ccccc3)nc(C#Cc3ccccc3Cl)nc21 [Compound 16] | 

Row | SMILES | functional character at the hA3AR (hA3AR [3]) | further results
10 | O[C@@H]1[C@H](O)[C@@H]2C[C@@H]2[C@H]1n1cnc2c(NCCc3ccccc3)nc(C#Cc3ccccc3)nc21 [Compound 15] | selective antagonist; also recorded: antagonists | 
